From patent US20250145635A1, “COMPOUND CONTAINING BIS(AZANYLYLIDENE) SULFONYL STRUCTURE AND USE THEREOF IN MEDICINE” (SCINNOHUB PHARMACEUTICAL CO., LTD., priority 2021, published 2025)

Experiments:
[1] = biological target: recombinant human PKR enzyme (Homo sapiens (Human), UniProt P30613); assay: Pyruvate kinase (PKR) activity experiment; type: biochemical; settings: activation of recombinant human PKR enzyme
USP9X = USP9X (Homo sapiens (Human), UniProt Q93008); assay: USP9X enzyme activity experiment; type: biochemical; settings: inhibition of USP9X enzyme, Ub-Rho 110 substrate
Experimental: • 1). A 1× analysis buffer was formulated, consisting of a modified Tris buffer (pH 7.5). • 2). Compound solutions of different concentrations were formulated with final concentrations of 3,000/1,000/300/100/30/10/3/1 nM (containing 1% DMSO), and added into a 384-well plate. • 3). A USP9X enzyme solution was formulated with the 1× analysis buffer. • 4). 10 μL of the USP9X enzyme solution was added into the 384-well plate, and incubated with the compounds at room temperature for 1 h. • 5). Rhodamine 110 Protein was added into the 1× analysis buffer to formulate a substrate working solution. • 6). 10 μL of the substrate solution was added into each reaction well, centrifuged for 30 s, and mixed uniformly for 30 s. • 7). The 384-well plate was placed on a microplate reader for detection, with an excitation wavelength of 480 nm and an emission wavelength of 540 nm. Test was conducted for 30 minutes and the data was collected. • 8. Fitting the dose-effect curve.
With the log value of the compound concentration as the X axis and the percentage inhibition rate as the Y axis, a dose-effect curve was fitted with the log(inhibitor) vs. response-variable slope of the analysis software GraphPad Prism 5, and the IC50 value of the activity of each compound against USP9X was obtained.

Sequence of USP9X (Q93008 whole entry): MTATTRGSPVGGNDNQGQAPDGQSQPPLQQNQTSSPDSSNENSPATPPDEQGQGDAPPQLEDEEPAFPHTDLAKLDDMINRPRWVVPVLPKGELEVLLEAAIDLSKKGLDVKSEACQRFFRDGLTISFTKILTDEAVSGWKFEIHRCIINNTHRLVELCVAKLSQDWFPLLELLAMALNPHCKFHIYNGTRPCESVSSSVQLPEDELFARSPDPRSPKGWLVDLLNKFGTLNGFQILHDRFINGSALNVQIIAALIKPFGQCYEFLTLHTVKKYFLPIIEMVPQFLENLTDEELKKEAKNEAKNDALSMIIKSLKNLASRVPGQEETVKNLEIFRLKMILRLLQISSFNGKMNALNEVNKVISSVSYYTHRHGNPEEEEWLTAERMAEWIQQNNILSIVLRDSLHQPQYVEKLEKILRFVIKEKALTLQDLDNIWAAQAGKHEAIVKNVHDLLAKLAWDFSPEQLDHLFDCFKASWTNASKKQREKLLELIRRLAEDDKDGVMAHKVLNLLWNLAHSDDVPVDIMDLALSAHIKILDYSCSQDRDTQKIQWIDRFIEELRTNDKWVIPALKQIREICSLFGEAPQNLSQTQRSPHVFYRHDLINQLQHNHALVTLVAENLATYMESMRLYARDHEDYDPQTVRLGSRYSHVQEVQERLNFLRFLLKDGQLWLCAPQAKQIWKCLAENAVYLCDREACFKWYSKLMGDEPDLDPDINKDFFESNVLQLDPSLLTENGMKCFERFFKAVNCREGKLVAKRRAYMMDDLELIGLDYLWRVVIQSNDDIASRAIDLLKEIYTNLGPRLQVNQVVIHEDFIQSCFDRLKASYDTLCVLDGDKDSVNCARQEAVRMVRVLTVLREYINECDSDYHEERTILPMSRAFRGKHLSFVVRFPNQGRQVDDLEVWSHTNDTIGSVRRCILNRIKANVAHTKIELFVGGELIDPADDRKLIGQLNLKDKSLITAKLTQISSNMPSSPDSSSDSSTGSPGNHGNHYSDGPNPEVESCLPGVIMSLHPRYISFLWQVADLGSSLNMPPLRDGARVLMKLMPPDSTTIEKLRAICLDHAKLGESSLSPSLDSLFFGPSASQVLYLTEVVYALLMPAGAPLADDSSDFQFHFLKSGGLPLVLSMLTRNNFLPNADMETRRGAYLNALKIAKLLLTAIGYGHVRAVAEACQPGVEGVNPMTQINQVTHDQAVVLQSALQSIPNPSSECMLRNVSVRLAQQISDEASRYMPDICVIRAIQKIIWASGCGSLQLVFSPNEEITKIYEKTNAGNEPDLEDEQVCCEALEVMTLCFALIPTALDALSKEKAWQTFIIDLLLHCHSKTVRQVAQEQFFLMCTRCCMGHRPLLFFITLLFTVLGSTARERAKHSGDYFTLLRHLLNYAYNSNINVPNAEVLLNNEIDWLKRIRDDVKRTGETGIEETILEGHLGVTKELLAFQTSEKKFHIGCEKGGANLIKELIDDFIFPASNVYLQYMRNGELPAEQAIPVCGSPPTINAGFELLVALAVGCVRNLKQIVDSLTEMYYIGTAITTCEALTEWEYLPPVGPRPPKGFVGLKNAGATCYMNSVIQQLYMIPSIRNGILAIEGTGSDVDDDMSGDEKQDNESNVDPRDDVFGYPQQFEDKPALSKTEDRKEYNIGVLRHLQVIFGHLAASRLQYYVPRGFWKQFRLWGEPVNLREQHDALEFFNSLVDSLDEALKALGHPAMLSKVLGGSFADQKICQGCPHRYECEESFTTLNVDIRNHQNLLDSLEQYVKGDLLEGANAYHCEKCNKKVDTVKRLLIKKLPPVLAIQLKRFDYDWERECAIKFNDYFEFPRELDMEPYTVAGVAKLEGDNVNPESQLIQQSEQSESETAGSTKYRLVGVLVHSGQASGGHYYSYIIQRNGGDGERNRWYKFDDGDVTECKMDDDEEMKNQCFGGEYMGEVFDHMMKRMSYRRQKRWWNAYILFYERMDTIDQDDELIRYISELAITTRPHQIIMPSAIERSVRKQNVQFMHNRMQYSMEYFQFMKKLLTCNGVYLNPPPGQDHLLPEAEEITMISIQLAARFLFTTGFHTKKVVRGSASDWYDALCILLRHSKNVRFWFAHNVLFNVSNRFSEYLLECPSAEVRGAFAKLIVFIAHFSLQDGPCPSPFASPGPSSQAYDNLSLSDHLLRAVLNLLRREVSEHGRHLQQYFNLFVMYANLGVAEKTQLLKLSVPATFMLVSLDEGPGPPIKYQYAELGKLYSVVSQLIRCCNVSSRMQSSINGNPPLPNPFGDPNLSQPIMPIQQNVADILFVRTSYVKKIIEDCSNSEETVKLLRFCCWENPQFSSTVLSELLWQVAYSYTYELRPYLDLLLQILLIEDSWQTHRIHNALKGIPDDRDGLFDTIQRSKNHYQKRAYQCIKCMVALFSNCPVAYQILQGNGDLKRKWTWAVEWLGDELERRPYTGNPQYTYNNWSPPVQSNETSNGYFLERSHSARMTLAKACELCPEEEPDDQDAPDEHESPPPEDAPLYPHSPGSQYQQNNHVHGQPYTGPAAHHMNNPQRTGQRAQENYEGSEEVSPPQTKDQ
Sequence of recombinant human PKR enzyme (P30613 whole entry): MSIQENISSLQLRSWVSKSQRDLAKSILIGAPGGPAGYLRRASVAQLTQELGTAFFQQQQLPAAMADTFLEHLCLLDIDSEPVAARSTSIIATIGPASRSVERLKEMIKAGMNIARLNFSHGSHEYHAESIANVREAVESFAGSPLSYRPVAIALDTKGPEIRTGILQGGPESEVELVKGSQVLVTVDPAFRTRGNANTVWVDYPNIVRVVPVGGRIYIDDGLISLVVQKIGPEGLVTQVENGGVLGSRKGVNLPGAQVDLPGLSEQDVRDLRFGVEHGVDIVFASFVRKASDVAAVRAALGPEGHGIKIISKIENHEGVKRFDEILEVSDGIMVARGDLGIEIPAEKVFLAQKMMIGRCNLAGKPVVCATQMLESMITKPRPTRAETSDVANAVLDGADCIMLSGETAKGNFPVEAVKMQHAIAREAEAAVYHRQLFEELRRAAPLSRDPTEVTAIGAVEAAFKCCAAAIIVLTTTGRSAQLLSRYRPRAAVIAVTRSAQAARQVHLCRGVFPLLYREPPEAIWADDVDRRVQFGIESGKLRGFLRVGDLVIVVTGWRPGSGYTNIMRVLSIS

SMILES | AC50 [1] [nM] | IC50 (USP9X) [nM]
O=C([C@H](CO)c1ccccc1)N1CC(=C2CN(S(=O)(=O)c3ccc4ncsc4c3)C2)C1 [Compound 3, (S)-1-(1′-(benzo[d]thiazol-6-ylsulfonyl)-1′,4′-dihydro-2H,2′H-[3,3′-diazetidinylidene]-1(4H)-yl)-3-hydroxy-2-phenylpropan-1-one] | < 100 | 300 to 1000
O=C(C(CO)c1ccccc1)N1CC(=C2CN(S(=O)(=O)c3ccc(OC(F)F)cc3)C2)C1 (stereo not shown) [Compound 6, 1-(1′-((4-(difluoromethoxy)phenyl)sulfonyl)-1′,4′-dihydro-2H,2′H-[3,3′-diazetidinylidene]-1(4H)-yl)-3-hydroxy-2-phenylpropan-1-one] | – | 101 to 300
O=C(C(CO)C1CCCCC1)N1CC(=C2CN(S(=O)(=O)c3ccccn3)C2)C1 (stereo not shown) [Compound 90, 2-cyclohexyl-3-hydroxy-1-(1′-(pyridin-2-ylsulfonyl)-1′,4′-dihydro-2H,2′H-[3,3′-diazetidinylidene]-1(4H)-yl)propan-1-one] | 101 to 300 | –
[2H]C([2H])([2H])Oc1ccc(S(=O)(=O)N2CC(=C3CN(C(=O)[C@H](CO)c4ccccc4)C3)C2)nc1 [Compound 91, (S)-3-hydroxy-1-(1′-((5-(methoxy-d3)pyridin-2-yl)sulfonyl)-1′,4′-dihydro-2H,2′H-[3,3′-diazetidinylidene]-1(4H)-yl)-2-phenylpropan-1-one] | < 100 | –

Other lines, results leading:

AC50 [1] [nM] | IC50 (USP9X) [nM] | SMILES
300 to 1000 | < 100 | O=C([C@H](CO)c1ccccc1)N1CC(=C2CN(S(=O)(=O)c3cnc4c(c3)OCCO4)C2)C1 [Compound 1, (S)-1-(1′-((2,3-dihydro-[1,4]dioxino[2,3-b]pyridin-7-yl)sulfonyl)-1′,4′-dihydro-2H,2′H-[3,3′-diazetidinylidene]-1(4H)-yl)-3-hydroxy-2-phenylpropan-1-one]
< 100 | < 100 | O=C([C@H](CO)c1ccccc1)N1CC(=C2CN(S(=O)(=O)c3ccc4c(c3)OCCO4)C2)C1 [Compound 2, (S)-1-(1′-((2,3-dihydrobenzo[b][1,4]dioxin-6-yl)sulfonyl)-1′,4′-dihydro-2H,2′H-[3,3′-diazetidinylidene]-1(4H)-yl)-3-hydroxy-2-phenylpropan-1-one]
101 to 300 | 101 to 300 | O=C([C@H](CO)c1ccccc1)N1CC(=C2CN(S(=O)(=O)c3ccccn3)C2)C1 [Compound 4, (S)-3-hydroxy-2-phenyl-1-(1′-(pyridin-2-ylsulfonyl)-1′,4′-dihydro-2H,2′H-[3.3′-diazetidinylidene]-1(4H)-yl)propan-1-one]
< 100 | < 100 | COc1ccc(S(=O)(=O)N2CC(=C3CN(C(=O)[C@H](CO)c4ccccc4)C3)C2)cc1 [Compound 5, (S)-3-hydroxy-1-(1′-((4-methoxyphenyl)sulfonyl)-1′,4′-dihydro-2H,2′H-[3,3′-diazetidinylidene]-1(4H)-yl)-2-phenylpropan-1-one]
